Test results published in article doi:10.1101/2021.10.07.463234v2 (biorxiv, 2021).
Structures can show the parent of a compound that is named as a salt.

Molecular target: SARS-CoV-2 Mac1 (Severe acute respiratory syndrome coronavirus 2, UniProt P0DTD1)
Test: biochemical
Conditions: for inhibition at 100 µM: read-out: %inhibition; for %inhibition: 100 µM, inhibitor

SMILES | inhibition at 100 µM [%] | %inhibition [%]
N#Cc1ccnc(N2C(=O)CC[C@H]2C(=O)N(c2cncc(F)c2)[C@H](C(=O)NC2CC(F)(F)C2)c2ccccc2Cl)c1 [Ivosidenib (AG-120)] | 9.59 | –
C/C(=C\c1csc(C)n1)[C@@H]1C[C@@H]2O[C@]2(C)CCC[C@H](C)[C@H](O)[C@@H](C)C(=O)C(C)(C)[C@@H](O)CC(=O)N1 [Ixabepilone (BMS-247550)] | 5.68 | –
CC(C)C[C@H](NC(=O)CNC(=O)c1cc(Cl)ccc1Cl)B(O)O [Ixazomib (MLN2238)] | 5.63 | –
CC(C)C[C@H](NC(=O)CNC(=O)c1cc(Cl)ccc1Cl)B1OC(=O)CC(CC(=O)O)(C(=O)O)O1 (stereo partly shown) [Ixazomib Citrate (MLN9708)] | 0 | –
NC[C@H]1O[C@H](O[C@H]2[C@H](O)[C@@H](O[C@H]3O[C@H](CO)[C@@H](O)[C@H](N)[C@H]3O)[C@H](N)C[C@@H]2N)[C@H](O)[C@@H](O)[C@@H]1O [Kanamycin sulfate] | 4.88 | –
O=C(c1ccc(F)cc1)C1CCN(CCn2c(=O)[nH]c3ccccc3c2=O)CC1 [Ketanserin] | 11.6 | –
CC(C(=O)O)c1cccc(C(=O)c2ccccc2)c1 (stereo not shown) [Ketoprofen] | 0 | –
O=C(c1ccccc1)c1ccc2n1CCC2C(=O)O (stereo not shown) [Ketorolac] | 11.8 | –
CN1CCC(=C2c3ccccc3CC(=O)c3sccc32)CC1 [Ketotifen Fumarate] | 0 | –
CNC[C@@H](O)c1ccc(O)c(O)c1 [L-Adrenaline] | 31.6 | –
N=C(N)NCCC[C@H](N)C(=O)O [L-Arginine HCl (L-Arg)] | 0 | –
N[C@H]1CONC1=O [L-Cycloserine] | 1.65 | –
N[C@@H](CS)C(=O)O [L-Cysteine HCl] | 0 | –
N[C@@H](CCC(=O)O)C(=O)O [L-Glutamic acid monosodium salt] | 0 | –
NC(=O)CC[C@H](N)C(=O)O [L-Glutamine] | 0 | –
CC(C)C[C@H](N)C(=O)O [L-Leucine] | 0 | –
NCCCC[C@H](N)C(=O)O [L-Lysine hydrochloride] | 9.1 | –
NCCC[C@H](N)C(=O)O [L-Ornithine] | 0 | –
C[Se]CC[C@H](N)C(=O)O [L-SelenoMethionine] | 0 | –
N[C@@H](Cc1cc(I)c(Oc2cc(I)c(O)c(I)c2)c(I)c1)C(=O)O [L-Thyroxine] | – | 10.74
C[N+](C)(C)C[C@H](O)CC(=O)[O-] [L-carnitine] | 3.55 | –
CC(CCc1ccccc1)NCC(O)c1ccc(O)c(C(N)=O)c1 (stereo not shown) [Labetalol HCl] | 0 | –
CCOC(=O)C1=C(C)NC(C)=C(C(=O)OCC)C1c1ccccc1/C=C/C(=O)OC(C)(C)C [Lacidipine] | 3.07 | –
OC[C@@H](O)[C@@H](O[C@@H]1O[C@H](CO)[C@H](O)[C@H](O)[C@H]1O)[C@H](O)[C@@H](O)CO [Lactitol monohydrate] | – | 1.512

SMILES | inhibition at 100 µM [%] | %inhibition [%]
OC[C@@H](O)[C@@H](O[C@@H]1O[C@H](CO)[C@H](O)[C@H](O)[C@H]1O)[C@H](O)[C@@H](O)CO [Lactitol] | – | 5.8
O=C(C[S+]([O-])Cc1ccco1)NC/C=C\COc1cc(CN2CCCCC2)ccn1 (stereo not shown) [Lafutidine] | 0 | –
Nc1ccn([C@@H]2CS[C@H](CO)O2)c(=O)n1 [Lamivudine] | 0 | –
Nc1nnc(-c2cccc(Cl)c2Cl)c(N)n1 [Lamotrigine] | 12.3 | –
CC1(C)OC[C@@H](COC(=O)CCc2ccc(OC[C@@H](O)CNCCNC(=O)N3CCOCC3)cc2)O1 [Landiolol hydrochloride] | 18 | –
Cc1c(OCC(F)(F)F)ccnc1C[S+]([O-])c1nc2ccccc2[nH]1 (stereo not shown) [Lansoprazole] | 4.45 | –
CS(=O)(=O)CCNCc1ccc(-c2ccc3ncnc(Nc4ccc(OCc5cccc(F)c5)c(Cl)c4)c3c2)o1 [Lapatinib (GW-572016) Ditosylate] | – | 16.67
CS(=O)(=O)CCNCc1ccc(-c2ccc3ncnc(Nc4ccc(OCc5cccc(F)c5)c(Cl)c4)c3c2)o1 [Lapatinib ditosylate monohydrate] | – | 13.25
CS(=O)(=O)CCNCc1ccc(-c2ccc3ncnc(Nc4ccc(OCc5cccc(F)c5)c(Cl)c4)c3c2)o1 [Lapatinib] | – | 0
CCN(C(=O)c1c(O)c2c(Cl)cccc2n(C)c1=O)c1ccccc1 [Laquinimod] | 22.6 | –
CO[C@@]1(NC(=O)C(C(=O)O)c2ccc(O)cc2)C(=O)N2C(C(=O)O)=C(CSc3nnnn3C)CO[C@@H]21 (stereo partly shown) [Latamoxef sodium] | 17 | –
CC(C)OC(=O)CCC/C=C\C[C@@H]1[C@@H](CC[C@@H](O)CCc2ccccc2)[C@H](O)C[C@@H]1O [Latanoprost] | 23.8 | –
COC(=O)N[C@H](C(=O)N1CC2(CC2)C[C@H]1c1nc(-c2ccc3c(c2)C(F)(F)c2cc(-c4ccc5[nH]c([C@@H]6[C@H]7CC[C@H](C7)N6C(=O)[C@@H](NC(=O)OC)C(C)C)nc5c4)ccc2-3)c[nH]1)C(C)C [Ledipasvir (GS5885)] | 23.8 | –
Cc1oncc1C(=O)Nc1ccc(C(F)(F)F)cc1 [Leflunomide] | 22.5 | –
Nc1cccc2c1CN(C1CCC(=O)NC1=O)C2=O (stereo not shown) [Lenalidomide (CC-5013)] | 40.3 | –
COc1cc2nccc(Oc3ccc(NC(=O)NC4CC4)c(Cl)c3)c2cc1C(N)=O [Lenvatinib (E7080)] | – | 22.86
COC(=O)C1=C(C)NC(C)=C(C(=O)OC(C)(C)CN(C)CCC(c2ccccc2)c2ccccc2)C1c1cccc([N+](=O)[O-])c1 (stereo not shown) [Lercanidipine hydrochloride] | 0 | –
O=C(O)CSc1nnc(Br)n1-c1ccc(C2CC2)c2ccccc12 [Lesinurad] | 2.49 | –
CCNC(=O)[C@@H]1CCCN1C(=O)[C@H](CCCNC(=N)N)NC(=O)[C@H](CC(C)C)NC(=O)[C@@H](CC(C)C)NC(=O)[C@H](Cc1ccc(O)cc1)NC(=O)[C@H](CO)NC(=O)[C@H](Cc1c[nH]c2ccccc12)NC(=O)[C@H](Cc1c[nH]cn1)NC(=O)[C@@H]1CCC(=O)N1 [Leuprolide Acetate] | 13.2 | –
CCNC(=O)[C@@H]1CCCN1C(=O)[C@H](CCCNC(=N)N)NC(=O)[C@H](CC(C)C)NC(=O)[C@@H](CC(C)C)NC(=O)[C@H](Cc1ccc(O)cc1)NC(=O)[C@H](CO)NC(=O)[C@H](Cc1c[nH]c2ccccc12)NC(=O)[C@H](Cc1c[nH]cn1)NC(=O)[C@@H]1CCC(=O)N1 [Leuprorelin Acetate] | – | 6.662
c1ccc([C@H]2CN3CCSC3=N2)cc1 [Levamisole hydrochloride] | 0 | –
CC[C@@H](C(N)=O)N1CCCC1=O [Levetiracetam] | 0 | –
CC(C)NC[C@H](O)COc1ccc(CCOCC2CC2)cc1 [Levobetaxolol HCl] | 12.1 | –
CCCCN1CCCC[C@H]1C(=O)Nc1c(C)cccc1C [Levobupivacaine HCl] | 0 | –

SMILES | inhibition at 100 µM [%] | %inhibition [%]
O=C(O)COCCN1CCN([C@H](c2ccccc2)c2ccc(Cl)cc2)CC1 [Levocetirizine Dihydrochloride] | 7.84 | –
OC[C@@H](O)CN1CCN(c2ccccc2)CC1 [Levodropropizine] | 4.43 | –
C[C@H]1COc2c(N3CCN(C)CC3)c(F)cc3c(=O)c(C(=O)O)cn1c23 [Levofloxacin hydrate] | – | 0
C[C@H]1COc2c(N3CCN(C)CC3)c(F)cc3c(=O)c(C(=O)O)cn1c23 [Levofloxacin] | – | 22.21
C#C[C@]1(O)CC[C@H]2[C@@H]3CCC4=CC(=O)CC[C@@H]4[C@H]3CC[C@@]21CC [Levonorgestrel] | 53.4 | –
C[C@@H]1CC(=O)NN=C1c1ccc(NN=C(C#N)C#N)cc1 [Levosimendan] | 0 | –
CCN1CCC[C@H]1CNC(=O)c1cc(S(N)(=O)=O)ccc1OC [Levosulpiride] | 0 | –
N[C@@H](Cc1cc(I)c(Oc2cc(I)c(O)c(I)c2)c(I)c1)C(=O)O [Levothyroxine sodium] | – | 4.124
CCN(CC)CC(=O)Nc1c(C)cccc1C [Lidocaine hydrochloride] | – | 4.808
CCN(CC)CC(=O)Nc1c(C)cccc1C [Lidocaine] | – | 1.6
CS(=O)(=O)c1cccc(C[C@H](NC(=O)c2c(Cl)cc3c(c2Cl)CCN(C(=O)c2ccc4ccoc4c2)C3)C(=O)O)c1 [Lifitegrast] | 0 | –
CC#CCn1c(N2CCC[C@@H](N)C2)nc2c1c(=O)n(Cc1nc(C)c3ccccc3n1)c(=O)n2C [Linagliptin] | 23.9 | –
CCC[C@@H]1C[C@@H](C(=O)N[C@@H]([C@H]2O[C@H](SC)[C@H](O)[C@@H](O)[C@H]2O)[C@@H](C)O)N(C)C1 [Lincomycin HCl] | – | 0
CCC[C@@H]1C[C@@H](C(=O)N[C@@H]([C@H]2O[C@H](SC)[C@H](O)[C@@H](O)[C@H]2O)[C@@H](C)O)N(C)C1 [Lincomycin Hydrochloride Monohydrate] | – | 16.9
CC(=O)NC[C@H]1CN(c2ccc(N3CCOCC3)c(F)c2)C(=O)O1 [Linezolid] | 0 | –
Cc1ccc(F)c(NC(=O)Nc2ccc(-c3cccc4[nH]nc(N)c34)cc2)c1 [Linifanib (ABT-869)] | 52.3 | –
C[C@]1(O)C[C@@H](c2nc(-c3ccc4ccc(-c5ccccc5)nc4c3)c3c(N)nccn32)C1 [Linsitinib (OSI-906)] | 9.54 | –
NCCCC[C@H](N[C@@H](CCc1ccccc1)C(=O)O)C(=O)N1CCC[C@H]1C(=O)O [Lisinopril] | 3.22 | –
C[C@H](CCC(=O)O)[C@H]1CC[C@H]2[C@@H]3CC[C@@H]4C[C@H](O)CC[C@]4(C)[C@H]3CC[C@]12C [Lithocholic acid] | 0 | –
CCn1cc(C(=O)O)c(=O)c2cc(F)c(N3CCNC(C)C3)c(F)c21 (stereo not shown) [Lomefloxacin] | 0 | –
COc1ccc(CN2CCN(C(c3ccc(F)cc3)c3ccc(F)cc3)CC2)c(OC)c1OC [Lomerizine 2HCl] | 12.8 | –
CC(C)(C)C#Cc1cc(N(C(=O)[C@H]2CC[C@H](C)CC2)[C@H]2CC[C@H](O)CC2)c(C(=O)O)s1 [Lomibuvir (VX-222, VCH-222)] | 2.87 | –
